Where “and” joins values, the source holds several entries; their conditions need not be identical. Identical values can stand only once.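 Growth conditions: 96-well plates. Treatment: test compound, 48 hours, 5 concentrations. Analysis: linear interpolation between bracketing concentrations; unreached endpoints set to highest concentration. GI50 is the concentration that inhibits growth by half. TGI marks complete inhibition of growth.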
Legend:
Experiment in all cases: DTP human tumour cell line panel, 48 h
HT29 colon = test system: HT29 colon
HCT-15 colon = test system: HCT-15 colon
NCI/ADR-RES ovarian = test system: NCI/ADR-RES ovarian
CAKI-1 renal = test system: CAKI-1 renal
OVCAR-4 ovarian = test system: OVCAR-4 ovarian
SF-268 CNS = test system: SF-268 CNS
HCT-116 colon = test system: HCT-116 colon
KM12 colon = test system: KM12 colon
TK-10 renal = test system: TK-10 renal
786-0 renal = test system: 786-0 renal

| SMILES | GI50 (HT29 colon) | TGI (HT29 colon) | GI50 (HCT-15 colon) | TGI (HCT-15 colon) | GI50 (NCI/ADR-RES ovarian) | TGI (NCI/ADR-RES ovarian) | GI50 (CAKI-1 renal) | TGI (CAKI-1 renal) | GI50 (OVCAR-4 ovarian) | TGI (OVCAR-4 ovarian) | GI50 (SF-268 CNS) | TGI (SF-268 CNS) | GI50 (HCT-116 colon) | TGI (HCT-116 colon) | GI50 (KM12 colon) | TGI (KM12 colon) | GI50 (TK-10 renal) | TGI (TK-10 renal) | GI50 (786-0 renal) | TGI (786-0 renal) |
| --- | --- | --- | --- | --- | --- | --- | --- | --- | --- | --- | --- | --- | --- | --- | --- | --- | --- | --- | --- | --- |
| COc1ccc2nc3ccccc3c(NCc3ccccc3)c2c1 | 1.8 µM | 6.23 µM | 1.83 µM | 4.46 µM | 2.09 µM | 6.69 µM | 1.94 µM | 6.82 µM | 2.37 µM | 7.58 µM | 2.94 µM | 9.71 µM | 1.72 µM | 5.25 µM | 3.49 µM | 12.9 µM | 3.79 µM | 13.1 µM | 1.8 µM | 3.38 µM |
| Oc1cc(O)c2c(c1)OC(c1ccc(O)c(O)c1)C(O)C2c1c(O)cc(O)c2c1OC(c1ccc(O)c(O)c1)C(O)C2 (stereo unspecified) |  | > 100 µM |  | > 100 µM |  | > 100 µM |  | 67.5 µM |  | > 100 µM |  | > 100 µM |  | > 100 µM |  | > 100 µM |  | > 100 µM |  | > 100 µM |
| OCC1OC(n2cnc3c(NCc4ccco4)ncnc32)C(O)C1O (stereo unspecified) | 2.1 µM | > 38 µM | 0.524 µM | > 28.1 µM | 0.675 µM | > 35.7 µM | 0.369 µM | 4.33 µM | 2.8 µM | 18.8 µM | 4.28 µM | > 100 µM | 0.338 µM | 1.59 µM | 8.51 µM | > 100 µM | 3.18 µM | > 63.7 µM | 2.16 µM | 10.3 µM |
| CC1(C)CC[C@]2(CO)CC[C@]3(C)C(=CC[C@@H]4[C@@]5(C)CCNCC(C)(C)[C@@H]5CC[C@]43C)[C@@H]2C1 | 2.69 µM | 9.4 µM | 2.16 µM | 6.26 µM | 9.4 µM | 24.9 µM | 3.64 µM | 11.9 µM | 7.66 µM | 24 µM | 8.98 µM | 25.4 µM | 3.13 µM | 12.4 µM | 3.32 µM | 12.2 µM | 10.3 µM | 22.6 µM | 3.8 µM | 15 µM |
| CCN(CC)CCCNc1cc(OC)c(OC)c2cccnc12 | 13.4 µM | 40.3 µM | 14.1 µM | 49.8 µM | 15.6 µM | 49 µM | 2.15 µM | 29.7 µM | 1.68 µM | 3.18 µM | 14.4 µM | 46.3 µM | 2.18 µM | 7.58 µM | 13 µM | 31 µM | 23 µM | 50.1 µM | 12 µM | 31.3 µM |
| Cc1cn2c(/C=C3\C(=O)N(C)c4ccc(Cl)cc43)c(C)nc2s1 | 1.9 µM | 12 µM | 4.03 µM | > 100 µM | 1.9 µM | 5.66 µM | 3.11 µM | > 100 µM | 6.18 µM | 91 µM | 3.02 µM | > 100 µM | 2.55 µM | 14.6 µM | 1.29 µM | > 100 µM | 9.65 µM | 73 µM | 4.92 µM | 21.7 µM |
| CCOC(=O)c1cc2c(n1Cc1cc(OC)cc(OC)c1)-c1oncc1CC2 | 0.073 µM | > 100 µM | 0.13 µM | > 100 µM | 0.0486 µM |  | 0.102 µM | > 100 µM | 1.06 µM | > 100 µM | 3.18 µM | > 100 µM | 0.157 µM | > 100 µM | 0.0816 µM | > 59.5 µM | 3.58 µM | > 100 µM | 0.499 µM | > 100 µM |
| O=C(O)c1[nH]c2c([N+](=O)[O-])cc([N+](=O)[O-])cc2c1C(=O)O |  | > 100 µM |  | > 100 µM |  | > 100 µM |  | > 100 µM |  | > 100 µM |  | > 100 µM |  | > 100 µM |  | > 100 µM |  | > 100 µM |  | > 100 µM |
| NS(=O)(=O)c1cc(C(=O)O)c(Cl)c([N+](=O)[O-])c1Cl |  | > 100 µM |  | > 100 µM |  | > 100 µM |  | > 100 µM |  | > 100 µM |  | > 100 µM |  | > 100 µM |  | > 100 µM |  | > 100 µM |  | > 100 µM |
| CN(C)C/C=C/C(=O)Nc1cc2c(Nc3cccc(Cl)c3F)ncnc2cc1OCCOC(F)F | 1.31 µM | 10.6 µM | 1.08 µM |  | 0.771 µM | 7.74 µM | < 0.01 µM | 1.65 µM | 1.5 µM | 11.6 µM | 1.44 µM | 9.76 µM | 1.87 µM | 11 µM | 3.11 µM | 13.5 µM | < 0.01 µM | 1.3 µM | 0.695 µM | 9.77 µM |
| CCC(C)C(=O)OC1CCC=C2C=CC(C)C(CCC3CC(O)CC(=O)O3)C21 (stereo unspecified) |  | > 100 µM |  | > 100 µM |  | > 100 µM |  | 29 µM |  | > 100 µM |  | > 100 µM |  | > 100 µM |  | > 100 µM |  | 98.8 µM |  | > 65.9 µM |
| OCC1OC(n2cnc3c(NCc4ccccc4O)ncnc32)C(O)C1O (stereo unspecified) | 2.23 µM | 52.9 µM | 0.432 µM |  | 0.435 µM | 24.4 µM | 0.349 µM | 9.43 µM | 0.294 µM | 8.14 µM | 0.616 µM | > 100 µM | 0.131 µM | 3.4 µM | 5.23 µM | > 100 µM | 0.322 µM | > 52.6 µM | 0.571 µM | 7.7 µM |
| CCOC(=O)c1cc2c(n1Cc1ccccc1OC)-c1oncc1CCC2 | 0.912 µM | > 100 µM | 2.24 µM | > 100 µM | 1.36 µM | > 100 µM | 3.51 µM | > 100 µM | 9.35 µM | > 100 µM | 46.2 µM | > 100 µM | 3.79 µM | > 100 µM | 2.1 µM | > 100 µM | 67.8 µM | > 100 µM | > 100 µM | > 100 µM |
| C[C@@H](Oc1cc(-c2cnn(C3CCNCC3)c2)cnc1N)c1c(Cl)cc(F)cc1Cl | 1.11 µM | 3.56 µM | 2.7 µM | 12.5 µM | 5.81 µM | 20.1 µM | 3.17 µM | 12.6 µM | 2.86 µM | 10.8 µM | 3.05 µM | 12.1 µM | 1.12 µM | 5.16 µM | 0.0496 µM | 2.93 µM | 3.6 µM | 11.6 µM | 2.13 µM | 4.84 µM |
| O=C(Nc1ccc(Cl)cc1)N1CCN(c2ccc3nncn3n2)CC1 | 60.7 µM | > 100 µM | 30.2 µM | > 100 µM | > 100 µM | > 100 µM | 30.3 µM | > 100 µM | 51.6 µM | > 100 µM | > 100 µM | > 100 µM | 64 µM | > 100 µM | 52.9 µM | > 100 µM | 43 µM | > 100 µM | > 100 µM | > 100 µM |
| CC1(C)CN(CCNc2nccc(-c3c(-c4cccc(O)c4)nc4sccn34)n2)S(=O)(=O)N1 | 3.2 µM | > 33.2 µM | 11.5 µM | > 33.2 µM | > 33.2 µM | > 33.2 µM | 6.12 µM | > 27.2 µM | 12.8 µM | > 33.2 µM | 21.8 µM | > 33.2 µM | 5.05 µM | > 33.2 µM | 11.9 µM | > 33.2 µM | > 22.6 µM | > 33.2 µM | 11.2 µM | > 33.2 µM |
| COc1ccc(NC(=O)c2cccc(C3CCc4c(cc(OC)c(OC)c4OC)O3)c2)cc1 (stereo unspecified) | 3.17 µM | > 100 µM | 1.96 µM | > 100 µM | 2.81 µM | > 100 µM | 3.49 µM | > 100 µM | 3.14 µM | > 100 µM | 5.13 µM | > 100 µM | 3.65 µM | > 100 µM | 3.49 µM | > 100 µM | 3.75 µM | > 100 µM | 4.18 µM | > 100 µM |
| CC(=N\O)/C(C)=N/O.CC(=N\O)/C(C)=N/O.[Fe].[NH2-].c1c[nH]cn1 | > 100 µM | > 100 µM | > 100 µM | > 100 µM | > 100 µM | > 100 µM | > 100 µM | > 100 µM | > 100 µM | > 100 µM | > 100 µM | > 100 µM | > 100 µM | > 100 µM | > 100 µM | > 100 µM | > 100 µM | > 100 µM | > 100 µM | > 100 µM |
| O=C(c1ccc(Nc2nccc(NCCCCNc3ccnc4cc(Cl)ccc34)n2)cc1)N1CCCCC1 | 1.31 µM | 6.57 µM | 1.69 µM | 6.43 µM | 12.6 µM | > 100 µM | 2.77 µM | 8.84 µM | 1.95 µM | 7.52 µM | 2.36 µM | 8.31 µM | 1.01 µM | 2.42 µM | 2.94 µM | 11 µM | 2.16 µM | 4.83 µM | 1.46 µM | 2.82 µM |
| O=c1[nH]c2ccccc2n1C1CCN(CCOc2ccccc2)CC1 | 35.8 µM | > 100 µM | 20.6 µM | > 100 µM | 11.5 µM | > 100 µM | 14.9 µM | 52.7 µM | 5.86 µM | > 100 µM | 39.1 µM | > 100 µM | 10.7 µM | > 100 µM | 40.4 µM | > 100 µM | 86.2 µM | > 100 µM | 43.9 µM | > 100 µM |
| COc1ccc(C(Nc2ccccn2)c2cc(C(C)(C)C)cc(C(C)(C)C)c2O)cc1 (stereo unspecified) |  | > 100 µM |  | > 100 µM |  | > 100 µM |  | > 100 µM |  | > 100 µM |  | > 100 µM |  | > 100 µM |  | 63.8 µM |  | > 100 µM |  | > 100 µM |
| NC(Cc1c[nH]c2cccc(F)c12)C(=O)O (stereo unspecified) | 36.5 µM and 300 µM | 2620 µM | 61.6 µM and 266 µM | 2870 µM | 63.9 µM and 418 µM | 2360 µM | 1080 µM | > 4500 µM |  | > 4500 µM | 801 µM | > 4500 µM | 43.8 µM and 305 µM | 1000 µM | 25.2 µM and 230 µM | > 4500 µM | 1220 µM | > 4500 µM | 124 µM | 894 µM |
| O=C(COc1cccc(/C=C2\Oc3ccc4ccccc4c3C2=O)c1)c1ccc([N+](=O)[O-])cc1 | 36 µM | > 100 µM | 12.3 µM | 30.9 µM | > 100 µM | > 100 µM | 45.9 µM | > 100 µM | 20 µM | 60.3 µM | 13.3 µM | 27.2 µM | 16.5 µM | 40.9 µM | 11.9 µM | 26.2 µM | 37.3 µM | > 100 µM | 23.6 µM | 62.3 µM |
| Cc1ccc(NC2=CC(=O)C(=O)c3ccccc32)cc1 | 2.14 µM | 4.47 µM | 1.49 µM | 3.91 µM | 2.17 µM | 17.4 µM | 3.14 µM | 16.5 µM | 1.39 µM | 2.72 µM | 2.78 µM | 12.1 µM | 2.23 µM | 9.13 µM | 2.59 µM | 9.73 µM | 2.83 µM | 11 µM | 15 µM | > 100 µM |
